We go through one compound from patent publication US20260325655A1, “DECREASING THE INTRINSICALLY DISORDERED PROTEIN ALPHA-SYNUCLEIN’S LEVELS BY TARGETING ITS STRUCTURED MRNA WITH A RIBONUCLEASE TARGETING CHIMERA” (University of Florida Research Foundation, Incorporated, priority 2023, published 2026).

One assay deals with RNase L. As to conditions: regioisomer recruiter module of Syn-CTRL vs active recruiter (ref 48); cited from earlier work.
The test system of assay [1] is control luciferase reporter lacking an IRE. The assay is described as follows: control luciferase reporter lacking an IRE. In kind it is cell-based, human. As to conditions: reporter lacks IRE / SNCA-UTR sequence. An excerpt:
(§1) Plasmid constructs and establishment of reporter gene overexpressing cells. Construction of pIRES-Luc-EGFP-puro plasmid and pCDH-α-syn-5′-UTR-Luc-EGFP-puro plasmid used in 5′ UTR-luciferase-based selectivity assay were previously described.^4 Briefly, In-Fusion PCR cloning system (Takara Bio, Mountain View, CA, USA) was used for all plasmid constructions per the manufacturer's instructions. To ensure sequence accuracy, all plasmids generated in this study were confirmed by sequencing.
(§2) Luciferase assay. The effect of compounds on translation of SNCA IRE-containing transcript was measured by using a luciferase reporter assay. HeLa cells (~60% confluency) were transfected with plasmids (2 μg per 60 mm dish) by using JetPrime (Polyplus Transfection) according to the manufacturer's recommended procedures. Approximately 16 h after transfection, the transfection cocktail was removed, and the cells were trypsinized and seeded to 96-well plates (8,000 cells per well). After 6 h, cells were treated as described in Cell Culture. To measure the luciferase signals, the cells were then washed with 1× DPBS, and luciferase activity in each well was measured by using the ONE-Glo Luciferase Assay System (Promega) per the manufacturer's instructions. Luminescence from firefly luciferase reaction was measured using a Biomek FLx800 plate reader.
On the technique in general: Reporter assays use an easily measured gene product as a stand-in for the process of interest.

The next assay has as its system SNCA-UTR-Luciferase. The assay is described as follows: SNCA-UTR luciferase reporter assay. The settings on record: highest concentration tested. It is filed as cell-based, human.
Excerpt: as §1, §2

Assay [2] deals with SNCA IRE-luciferase transcript. Nature of the assay: SNCA IRE-luciferase transcript abundance by RT-qPCR. In kind it is cell-based, human. As to the method:
RNA extraction and reverse transcription-quantitative polymerase chain reaction (RT-qPCR). Total RNA was extracted from cells using a Quick-RNA MiniPrep Kit (Zymo Research) per the manufacturer's protocol including DNase treatment. For each sample, 200 ng of RNA was reverse transcribed into cDNA by using a qScript cDNA Synthesis Kit (QuantaBio) according to the manufacturer's instructions. To assess the relative mRNA levels, RT-qPCR was performed in triplicate using SYBR Green PCR mater mix (Applied Biosystems) with a Quant Studio 5 Real-Time PCR system. The relative levels of mRNA were calculated by using the ΔΔCt method as previously described.^8
as §1
(Real-time PCR tracks product formation cycle by cycle.)

The next assay concerns fully base paired RNA. The assay is described as follows: MST binding to fully base paired control RNA. As to conditions: microscale thermophoresis. On the procedure: (§3) Binding Affinity Measurements: Microscale Thermophoresis (MST). Binding affinity measurements were performed on a Monolith NT.115 MST system (NanoTemper Technologies) with Cy5-labeled oligonucleotides. Briefly, Cy5-labeled RNA (5 nM) was prepared in 1× Folding Buffer and folded by heating at 60° C. for 5 min and then slowly cooling to room temperature. After cooling, Tween-20 was added to a final concentration of 0.1% (v/v). Compound solutions were prepared separately in 30 μL of 1× Assay Buffer at a final concentration of 5 μM (1% (v/v) DMSO), followed by 1:1 serial dilutions in 1× Assay Buffer. RNA and compound solutions were then mixed 1:1 by volume.
(§4) Samples were incubated for 20 min at room temperature and then loaded into premium capillaries (NanoTemper Technologies, Cat #MO-K025). The following parameters were used for MST measurement: 5-20% LED power (adjusted to keep fluorescence intensity between 8000 and 18000), 80% MST power, Laser-On time=30 s, and Laser-Off time=5 s. The resulting data were analyzed by calculating the change in thermophoresis as a function of compound concentration and fitted by Equation (3) in MST analysis software (NanoTemper Technologies) to yield the dissociation constant (Kd):
(§5) where F is the concentration of fluorescently labeled RNA; unbound and bound refer to the thermophoresis signal at completely unbound and bound state of RNA, respectively; c is the concentration of the compound; f (c) is the thermophoresis signal at compound concentration of c; Kd is the dissociation constant.
Background: In MST a laser heats a spot of the sample, and binding alters the fluorescence response.

For another assay, the target named is SNCA IRE. Nature of the assay: MST binding affinity for SNCA IRE (A bulge model RNA). The settings on record: microscale thermophoresis; Cy5-labeled RNA. As to the method: as §3, §4, §5

For orientation: Kd means the concentration at which binding is half-saturated. For the compound `CCOC(=O)C1=C(Nc2ccccc2)S/C(=C\c2ccc(O)c(OCCOCCOCCOCCNC(=O)CCCOc3ccc(-n4c(SCC(=O)Nc5ccc6cn[nH]c6c5)nnc4-c4ccncc4)cc3)c2)C1=O` [Syn-CTRL], the “loss of activity of the RNase L-recruiting module in inducing RNase L cleavage” value in the assay on RNase L is recorded as ~ 20 -fold less active. In addition, in assay [1], the “inhibition in the control luciferase reporter” value was “Neither compound showed inhibition”. For the same compound, the “decrease of luminescence signal (in words)” value with SNCA-UTR-Luciferase is on record as “modest decrease”. The “effect on SNCA IRE-luciferase transcript levels (in words)” value in assay [2] is “no effect”. The “binding towards the fully base paired RNA” value with fully base paired RNA is reported as “no saturable binding”. Moreover, binding at SNCA IRE was put at a Kd of 97 ± 3 nM.
